Columns and labels:
rec-CgHMGR (CgHMGR) [1] = biological target: T1, rec-CgHMGR (CgHMGR) (Nakaseomyces glabratus, UniProt Q6FKH6); experiment: NADPH oxidation at […] nm; type: biochemical; settings: read-out: Inhibition (% of Relative Activity) *
T1 construct: gene HMG1; transmembrane region removed), pPICZB, His-tagged, expressed in Pichia pastoris X-33, Ni-NTA purified, approx. 48 kDa by SDS-PAGE
T1 sequence (Q6FKH6 619-1056 limits assumed): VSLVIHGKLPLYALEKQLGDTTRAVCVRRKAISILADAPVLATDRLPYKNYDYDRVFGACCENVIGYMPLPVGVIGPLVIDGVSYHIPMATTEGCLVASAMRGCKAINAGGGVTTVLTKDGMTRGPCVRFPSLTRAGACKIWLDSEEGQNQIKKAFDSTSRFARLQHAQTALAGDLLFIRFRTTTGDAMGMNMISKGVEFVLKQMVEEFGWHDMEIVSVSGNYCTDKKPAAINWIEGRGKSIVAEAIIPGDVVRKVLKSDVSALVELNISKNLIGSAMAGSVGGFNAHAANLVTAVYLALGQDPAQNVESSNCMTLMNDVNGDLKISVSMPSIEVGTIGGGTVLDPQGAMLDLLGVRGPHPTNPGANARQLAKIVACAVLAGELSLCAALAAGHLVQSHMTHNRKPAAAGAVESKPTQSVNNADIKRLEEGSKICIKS

rec-CgHMGR (CgHMGR) [2] = biological target: T1, rec-CgHMGR (CgHMGR); experiment: NADPH oxidation at […] nm; type: biochemical; settings: HMG-CoA, 50 mM Tris-HCl pH 8.0, 37 °C

Row | SMILES | inhibition at 100 µM (rec-CgHMGR (CgHMGR) [1]) [%] | NADPH oxidation at 340 nm (rec-CgHMGR (CgHMGR) [2])
1 | CCCc1cc(OC)c(OCC(=O)OC)cc1[N+](=O)[O-] [1a] | 73 ± 1.52 | 
2 | CCCc1cc(OC)c(OCC(=O)OC)cc1O [1b] | 89 ± 1.24 | 
3 | CCc1ccc(OCC(=O)OC)c([N+](=O)[O-])c1 [6g] | 86 ± 3.21 | 
4 | CCCc1cc(OC)c(OC)cc1O [7a] | 66 ± 2.08 | 
5 | NC(=O)C1=CN([C@@H]2O[C@H](COP(=O)(O)OP(=O)(O)OC[C@H]3O[C@@H](n4cnc5c(N)ncnc54)[C@H](OP(=O)(O)O)[C@@H]3O)[C@@H](O)[C@H]2O)C=CC1 [NADPH] |  | converted into its oxidized form by the catalytic subunit of HMGR in the presence of HMG-CoA
